Experiments:
[1] = system: interaction between mTOR and Rheb / mTOR signaling; assay: IP analysis of HA-RhebQ64L transfected cells treated with 1-butanol, t-butanol, PA, rapamycin; format: cell-based
Protocol: (§1) After harvesting COS7 cells, total extracts were prepared by brief sonication in ice-cold lysis buffer (40 mM HEPES pH7.5, 120 mM NaCl, 1 mM EDTA, 10 mM pyrophosphate, 10 mM glycerophosphate, 50 mM NaF, 1.5 mM Na3VO4, 0.5% CHAPS, 1 mM PMSF, protease inhibitor cocktails). Clarified extracts were mixed with 2 μg of the respective antibodies. Then protein A-Sepharose beads were added to isolate the antibody complex. After four washings with lysis buffer, the final immunoprecipitates were washed once with wash buffer (50 mM HEPES pH7.5, 150 mM NaCl), and then subjected to SDS-PAGE using Hyperfilm (Amersham Pharmacia Biotech), nitrocellulose membranes (Watmann), Power supply (Amersham Pharmacia Biotech), Electrophoretic Transfer unit (Hoefer Scientific Instruments), and ECL™ (Amersham Pharmacia Biotech).
This example examined the speculation that PA could increase Rheb/mTOR binding and activate mTOR through PA-dependent conformational change of mTOR.

S6K1 phosphorylation = assay: Leucine-induced S6K1 phosphorylation (Western blot); format: cell-based
Protocol: COS7 cells (ATCC, CRL-1651) were maintained in a 5% CO2 humidified atmosphere at 37° C. and fed DMEM supplemented with 10% bovine calf serum (HyClone). HEK293 cells (ATCC: CRL-1573) were fed DMEM supplemented with 10% fetal bovine serum (HyClone). Cells grown on tissue culture dishes were transiently transfected using LipofectAMINE, as described in “Park, J. B. et al. Cardiac phospholipase D2 localizes to sarcolemmal membranes and is inhibited by alpha-actinin in an ADP-ribosylation factor-reversible manner. J. Biol. Chem. 275, 21295-21301 (2000)” and “Lee, S. et al. Actin directly interacts with phospholipase D, inhibiting its activity. J. Biol. Chem. 276, 28252-28260 (2001)”, which are hereby incorporated by reference. Cells were allowed to express the recombinant proteins for 24 hr after transfection and then deprived of serum for additional 24 hr. The cells were then subjected to leucine deprivation, co-immunoprecipitation, or GST pull-down analysis. Leucine deprivation was performed as previously described 10 with minor modification. Briefly, cells were deprived of serum first for 24 hrs and then subjected to leucine deprivation in leucine-free RPMI 1640 medium. […]

mTOR pathway = settings: cited from earlier work
mTOR complex = target: T1, mTOR complex (Homo sapiens, UniProt P42345); assay: In vitro binding of purified GST-Rheb to mTOR/raptor/PLD2 immunoprecipitate; settings: PA 10 μM, GST-Rheb 40 nM, in the presence of GTPγS 100 μM (FIG. 13)
T1 construct: expressed in transfected cells; host or cells: The mTOR/raptor/PLD2 complex came from transfected mammalian cells; GST-Rheb was expressed in E. coli
Protocol: After incubation at 4° C. for 2 hr, the beads were washed and then subjected to SDS-PAGE. E. coli and COS7 cells were lysed with the lysis buffer used for the co-immunoprecipitation. Hexa-histidine (His6)-tagged PLD2 was purified from detergent extracts of baculovirus-infected Sf9 cells (Invitrogen) by chelating Sepharose affinity column chromatography, as previously described in Lee, S. et al. Actin directly interacts with phospholipase D, inhibiting its activity. J. Biol. Chem. 276, 28252-28260 (2001), which is hereby incorporated by reference. […] In vitro binding analysis was done in ice-cold lysis buffer (as used for the co-immunoprecipitation but including 10% glycerol).
HA-mTOR, myc-raptor, and PLD2 were transfected and resulting lysates were immunoprecipitated with anti-HA antibody.

PLD2 = target: T2, PLD2 (Homo sapiens, UniProt O14939); assay: In vivo PLD assay (PBt formation) in PLD2wt transfected cells; format: cell-based; settings: leucine-free vs leucine-added media, 0.4% 1-butanol (FIG. 16)
T2 construct: expressed in transfected cells
Protocol: In vivo PLD activity was assayed by measuring the formation of phosphatidyl-butanol as described in “Lee, S. et al. Actin directly interacts with phospholipase D, inhibiting its activity. J. Biol. Chem. 276, 28252-28260 (2001)” and “Ha, S. H., Kim, D. H., Kim, I. S., Kim, J. H., Lee, M. N., Lee, H. J., Kim, J. H., Jang, S. K., Suh, P. G., Ryu, S. H. PLD2 forms a functional complex with mTOR/raptor to transduce mitogenic signals. Cell. Signal. 18 (2006) 2283-2291”, which are hereby incorporated by reference.
In brief, cells were loaded with [^3H]myristic acid (2 μCi/ml) for 8 hr and then washed twice with DMEM. Labeled cells were incubated with 0.4% butanol for 10 min to measure basal PLD activity. Total lipids were extracted with 1.2 ml of methanol:1M NaCl:chloroform (1:1:1 by volume) and then separated by thin-layer chromatography on silica gel plates. The amount of [^3H]phosphatidyl-butanol formed was expressed as a percentage of total [^3H]lipid to account for cell labeling efficiency differences.
Until now, the function of PLD2 in nutrient signaling has not been proposed. To this end, the importance of PLD2 in nutrient signaling was tested. […] Based on the result, PLD2 activity in response to nutrient levels was checked. PLD2^wt was transfected and allowed to express for 24 hr.

[2] = system: interaction between PLD2 and mTOR; assay: Co-IP of endogenous PLD2 with mTOR (anti-mTOR antibody); format: cell-based; settings: rapamycin: mTOR inhibition; leucine: leucine-deprived COS7 and HEK293 cells (FIG. 17)
Protocol: as §1

With CCCCO [1-butanol] the “interaction between mTOR and Rheb” value ([1]; 1-butanol 0.4%, HA-RhebQ64L cells serum deprived 24 hr (FIG. 12)) was “attenuated” and the “stimulatory effect of leucine on S6K1” value (S6K1 phosphorylation; 1-butanol treatment) was “significantly reduced”.
In the case of CCCCCC(=O)OC[C@H](COP(=O)(O)O)OC(=O)CCCCC [PA, C-6 phosphatidic acid], the “Rheb activation of mTOR signaling, rescue from 1-butanol-treated cells” value ([1]; C-6 PA 100 uM (FIG. 12)) is listed as “essentially required”, the “rescue of mTOR activity by PA” value (mTOR pathway; PLD1 expression lowered) is listed as “could rescue” and the “activation of mTOR pathway by PA” value (mTOR pathway; PLD2 expression lowered) is listed as “could no longer activate”. The “GST-Rheb binding to mTOR complex” value (mTOR complex) was “increased”.
For CC(C)C[C@H](N)C(=O)O [leucine], the “PLD2 activity (PBt formation)” value (PLD2) was “reversibly regulated” and the “interaction between PLD2 and mTOR” value [2] was “increased”.
In the case of “PLD2 siRNA: 21-nucleotide siRNA duplex (SEQ ID NO: 9/10) corresponding to human PLD2 coding nucleotides 703-723 (chain 1 AAGAGGUGGCUGGUGGUGAAG; chain 2 CUUCACCACCAGCCACCUCUU; listed as RNA, chemistry not given here)”, the “effect of leucine on S6K1 phosphorylation” value (S6K1 phosphorylation; leucine deprivation 45 min, then leucine 15 min (0-100 μM FIG. 20; 100 μM FIG. 21)) is reported as “completely downregulated”.

Source: patent US8168177B2, “Method of regulating mammalian target-of-rapamycin activity by interaction between phospholipase D and Rheb” (Postech Academy-Industry Foundation, priority 2006, dated 2012)
